Laboratory results as given in patent publication US12077503B2, “Substituted cyclic amides and their use as herbicides” (FMC CORPORATION, priority 2015, dated 2024).

Legend:
Assay in all cases: Test C preemergence
Format in all cases: in vivo
[1] = tested on: johnsongrass (Sorghum halepense); conditions: for Plant response rating, Johnsongrass: scale 0 to 100, 0 no effect, 100 complete control
How it was run: (§1)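 Herbicidal effect, applied preemergence to sown seeds or postemergence to 1- to 4-leaf plants, was scored visually 13 to 15 d after application, 0 to 100 versus controls.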

[2] = tested on: pigweed (Amaranthus retroflexus); conditions: for Plant response rating, Pigweed: scale 0 to 100, 0 no effect, 100 complete control
How it was run: as §1

[3] = tested on: nutsedge, yellow (yellow nutsedge, Cyperus esculentus); conditions: for Plant response rating, Nutsedge, Yellow: scale 0 to 100, 0 no effect, 100 complete control
How it was run: as §1

[4] = tested on: ryegrass, Italian (Italian ryegrass, Lolium multiflorum); conditions: for Plant response rating, Ryegrass, Italian: scale 0 to 100, 0 no effect, 100 complete control
How it was run: as §1

[5] = tested on: Galium (catchweed bedstraw, Galium aparine); conditions: for Plant response rating, Galium: scale 0 to 100, 0 no effect, 100 complete control
How it was run: as §1

[6] = tested on: blackgrass (Alopecurus myosuroides); conditions: for Plant response rating, Blackgrass: scale 0 to 100, 0 no effect, 100 complete control
How it was run: as §1

[7] = tested on: waterhemp (common waterhemp, Amaranthus rudis); conditions: for Plant response rating, Waterhemp: scale 0 to 100, 0 no effect, 100 complete control
How it was run: as §1

[8] = tested on: oilseed rape (Brassica napus); conditions: for Plant response rating, Oilseed Rape: scale 0 to 100, 0 no effect, 100 complete control
How it was run: as §1

[9] = tested on: velvetleaf (Abutilon theophrasti); conditions: for Plant response rating, Velvetleaf: scale 0 to 100, 0 no effect, 100 complete control
How it was run: as §1

[10] = tested on: lambsquarters (Chenopodium album); conditions: for Plant response rating, Lambsquarters: scale 0 to 100, 0 no effect, 100 complete control
How it was run: as §1

[11] = tested on: crabgrass, large (large crabgrass, Digitaria sanguinalis); conditions: for Plant response rating, Crabgrass, Large: scale 0 to 100, 0 no effect, 100 complete control
How it was run: as §1

corn (Zea mays) = conditions: for Plant response rating, Corn: scale 0 to 100, 0 no effect, 100 complete control
How it was run: as §1

[12] = tested on: foxtail, giant (giant foxtail, Setaria faberii); conditions: for Plant response rating, Foxtail, Giant: scale 0 to 100, 0 no effect, 100 complete control
How it was run: as §1

[13] = tested on: morningglory (Ipomoea coccinea); conditions: for Plant response rating, Morningglory: scale 0 to 100, 0 no effect, 100 complete control
How it was run: as §1

[14] = tested on: barnyardgrass (Echinochloa crus-galli); conditions: for Plant response rating, Barnyardgrass: scale 0 to 100, 0 no effect, 100 complete control
How it was run: as §1

[15] = tested on: wheat (winter wheat, Triticum aestivum); conditions: for Plant response rating, Wheat: scale 0 to 100, 0 no effect, 100 complete control
How it was run: as §1

soybean (Glycine max) = conditions: for Plant response rating, Soybean: scale 0 to 100, 0 no effect, 100 complete control
How it was run: as §1

[16] = 31 g ai/ha, 0 is no effect, 100 is complete control

O=C1NCC(c2cccc(OC(F)(F)C(F)F)c2)C1C(=O)Nc1ccc(F)c(F)c1F (racemic) [Compound 698]
50: Plant response rating, Blackgrass ([6]; 125 g ai/ha) | Plant response rating, Velvetleaf ([9]; 125 g ai/ha)
10: Plant response rating (scale of 0 to 100), Lambsquarters [10, 16]
0: Plant response rating (scale of 0 to 100), Nutsedge, Yellow [3, 16] | Plant response rating, Nutsedge, Yellow ([3]; 62 g ai/ha) | Plant response rating, Nutsedge, Yellow ([3]; 125 g ai/ha) | Plant response rating, Nutsedge, Yellow ([3]; 250 g ai/ha) | Plant response rating (scale of 0 to 100), Ryegrass, Italian [4, 16] | Plant response rating, Ryegrass, Italian ([4]; 62 g ai/ha) | Plant response rating, Ryegrass, Italian ([4]; 125 g ai/ha) | Plant response rating (scale of 0 to 100), Blackgrass [6, 16] | Plant response rating, Blackgrass ([6]; 62 g ai/ha) | Plant response rating (scale of 0 to 100), Oilseed Rape [8, 16] | Plant response rating (scale of 0 to 100), Morningglory [13, 16] | Plant response rating, Morningglory ([13]; 62 g ai/ha) | Plant response rating (scale of 0 to 100), Wheat [15, 16] | Plant response rating, Wheat ([15]; 62 g ai/ha) | Plant response rating, Wheat ([15]; 125 g ai/ha) | Plant response rating, Soybean (soybean (Glycine max); 62 g ai/ha) | Plant response rating, Soybean (soybean (Glycine max); 125 g ai/ha) | Plant response rating, Soybean (soybean (Glycine max); 250 g ai/ha)
100: Plant response rating (scale of 0 to 100), Galium [5, 16] | Plant response rating, Galium ([5]; 125 g ai/ha)
40: Plant response rating, Velvetleaf ([9]; 62 g ai/ha) | Plant response rating (scale of 0 to 100), Corn (corn (Zea mays); [16])
25: Plant response rating (scale of 0 to 100), Velvetleaf [9, 16] | Plant response rating, Morningglory ([13]; 250 g ai/ha)
80: Plant response rating, Johnsongrass ([1]; 125 g ai/ha) | Plant response rating, Oilseed Rape ([8]; 125 g ai/ha) | Plant response rating, Lambsquarters ([10]; 250 g ai/ha) | Plant response rating, Corn (corn (Zea mays); 125 g ai/ha) | Plant response rating, Corn (corn (Zea mays); 250 g ai/ha)
65: Plant response rating, Velvetleaf ([9]; 250 g ai/ha)
75: Plant response rating (scale of 0 to 100), Johnsongrass [1, 16] | Plant response rating, Johnsongrass ([1]; 62 g ai/ha) | Plant response rating (scale of 0 to 100), Pigweed [2, 16] | Plant response rating (scale of 0 to 100), Barnyardgrass [14, 16]
35: Plant response rating, Lambsquarters ([10]; 62 g ai/ha) | Plant response rating (scale of 0 to 100), Soybean (soybean (Glycine max); [16])
95: Plant response rating, Crabgrass, Large ([11]; 125 g ai/ha) | Plant response rating, Crabgrass, Large ([11]; 250 g ai/ha)
90: Plant response rating, Pigweed ([2]; 125 g ai/ha) | Plant response rating, Pigweed ([2]; 250 g ai/ha) | Plant response rating, Galium ([5]; 62 g ai/ha) | Plant response rating, Galium ([5]; 250 g ai/ha) | Plant response rating, Waterhemp ([7]; 250 g ai/ha) | Plant response rating (scale of 0 to 100), Crabgrass, Large [11, 16] | Plant response rating, Crabgrass, Large ([11]; 62 g ai/ha) | Plant response rating, Foxtail, Giant ([12]; 62 g ai/ha) | Plant response rating, Foxtail, Giant ([12]; 250 g ai/ha) | Plant response rating, Barnyardgrass ([14]; 62 g ai/ha) | Plant response rating, Barnyardgrass ([14]; 125 g ai/ha) | Plant response rating, Barnyardgrass ([14]; 250 g ai/ha)
70: Plant response rating, Blackgrass ([6]; 250 g ai/ha) | Plant response rating, Lambsquarters ([10]; 125 g ai/ha) | Plant response rating, Corn (corn (Zea mays); 62 g ai/ha)
20: Plant response rating, Morningglory ([13]; 125 g ai/ha)
30: Plant response rating, Ryegrass, Italian ([4]; 250 g ai/ha) | Plant response rating, Oilseed Rape ([8]; 62 g ai/ha) | Plant response rating, Wheat ([15]; 250 g ai/ha)
85: Plant response rating, Johnsongrass ([1]; 250 g ai/ha) | Plant response rating, Pigweed ([2]; 62 g ai/ha) | Plant response rating (scale of 0 to 100), Waterhemp [7, 16] | Plant response rating, Waterhemp ([7]; 62 g ai/ha) | Plant response rating, Waterhemp ([7]; 125 g ai/ha) | Plant response rating, Oilseed Rape ([8]; 250 g ai/ha) | Plant response rating (scale of 0 to 100), Foxtail, Giant [12, 16] | Plant response rating, Foxtail, Giant ([12]; 125 g ai/ha)
